Counter-ions that a name gives are not always drawn.
Assays:
Assay in all cases: normalized area under the dose-response curve (viability relative to DMSO control) (fraction); higher = less sensitive (more viable cells)
Details in all cases: exposure time not given
[1] = system: SU-DHL1 (cancer type: TCL)
Method: (§1)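 25 myeloma and 15 non-Hodgkin lymphoma cell lines were exposed to each of 76 drugs as 7-point log dilutions (0.01 nM–10 µM) in duplicate. Viability was read with CellTiter-Glo and normalised to DMSO (0.1%) and staurosporine (10 µM) plate controls. Normalised AUC was calculated by the trapezoidal method relative to the negative control.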

L363 (cancer type: MM) = system: L363 (cancer type: MM)
Method: as §1

[2] = system: OCI-MY5/CRBN (cancer type: MM)
Method: as §1

[3] = system: OCI-MY7 (cancer type: MM)
Method: as §1

[4] = system: Granta-519 (cancer type: Mantle)
Method: as §1

AMO1 (cancer type: MM) = system: AMO1 (cancer type: MM)
Method: as §1

EJM (cancer type: MM) = system: EJM (cancer type: MM)
Method: as §1

U266 (cancer type: MM) = system: U266 (cancer type: MM)
Method: as §1

XG2 (cancer type: MM) = system: XG2 (cancer type: MM)
Method: as §1

KMS11 (cancer type: MM) = system: KMS11 (cancer type: MM)
Method: as §1

MM1.S (cancer type: MM) = system: MM1.S (cancer type: MM)
Method: as §1

[5] = system: RPMI 8226 (cancer type: MM)
Method: as §1

[6] = system: Karpas-299 (cancer type: TCL)
Method: as §1

My-La (cancer type: TCL) = system: My-La (cancer type: TCL)
Method: as §1

SKMM2 (cancer type: MM) = system: SKMM2 (cancer type: MM)
Method: as §1

[7] = system: SU-DHL6 (cancer type: DLBCL)
Method: as §1

[8] = system: JVM2 (cancer type: Mantle)
Method: as §1

JJN3 (cancer type: MM) = system: JJN3 (cancer type: MM)
Method: as §1

[9] = system: JeKo-1 (cancer type: Mantle)
Method: as §1

KMS18 (cancer type: MM) = system: KMS18 (cancer type: MM)
Method: as §1

Se-Ax (cancer type: TCL) = system: Se-Ax (cancer type: TCL)
Method: as §1

[10] = system: OCI-MY5/Vec (cancer type: MM)
Method: as §1

[11] = system: HuT 78 (cancer type: TCL)
Method: as §1

KMS26 (cancer type: MM) = system: KMS26 (cancer type: MM)
Method: as §1

[12] = system: KMS12PE (cancer type: MM)
Method: as §1

[13] = system: KMS28BM (cancer type: MM)
Method: as §1

[14] = system: OCI-MY5 (cancer type: MM)
Method: as §1

[15] = system: SU-DHL2 (cancer type: DLBCL)
Method: as §1

[16] = system: OCI-LY19 (cancer type: DLBCL)
Method: as §1

[17] = system: NCI-H929 (cancer type: MM)
Method: as §1

MM1.R (cancer type: MM) = system: MM1.R (cancer type: MM)
Method: as §1

[18] = system: KMS28PE (cancer type: MM)
Method: as §1

[19] = system: OCI-LY3 (cancer type: DLBCL)
Method: as §1

[20] = system: Mino (cancer type: Mantle)
Method: as §1

LP1 (cancer type: MM) = system: LP1 (cancer type: MM)
Method: as §1

[21] = system: OCI-LY1 (cancer type: DLBCL)
Method: as §1

[22] = system: SR-786 (cancer type: TCL)
Method: as §1

FR4 (cancer type: MM) = system: FR4 (cancer type: MM)
Method: as §1

OPM2 (cancer type: MM) = system: OPM2 (cancer type: MM)
Method: as §1

KMS34 (cancer type: MM) = system: KMS34 (cancer type: MM)
Method: as §1

Compound | normalized area under the dose-response curve [1] | normalized area under the dose-response curve (L363 (cancer type: MM)) | normalized area under the dose-response curve [2] | normalized area under the dose-response curve [3] | normalized area under the dose-response curve [4] | normalized area under the dose-response curve (AMO1 (cancer type: MM)) | normalized area under the dose-response curve (EJM (cancer type: MM)) | normalized area under the dose-response curve (U266 (cancer type: MM)) | normalized area under the dose-response curve (XG2 (cancer type: MM)) | normalized area under the dose-response curve (KMS11 (cancer type: MM)) | normalized area under the dose-response curve (MM1.S (cancer type: MM)) | normalized area under the dose-response curve [5] | normalized area under the dose-response curve [6] | normalized area under the dose-response curve (My-La (cancer type: TCL)) | normalized area under the dose-response curve (SKMM2 (cancer type: MM)) | normalized area under the dose-response curve [7] | normalized area under the dose-response curve [8] | normalized area under the dose-response curve (JJN3 (cancer type: MM)) | normalized area under the dose-response curve [9] | normalized area under the dose-response curve (KMS18 (cancer type: MM)) | normalized area under the dose-response curve (Se-Ax (cancer type: TCL)) | normalized area under the dose-response curve [10] | normalized area under the dose-response curve [11] | normalized area under the dose-response curve (KMS26 (cancer type: MM)) | normalized area under the dose-response curve [12] | normalized area under the dose-response curve [13] | normalized area under the dose-response curve [14] | normalized area under the dose-response curve [15] | normalized area under the dose-response curve [16] | normalized area under the dose-response curve [17] | normalized area under the dose-response curve (MM1.R (cancer type: MM)) | normalized area under the dose-response curve [18] | normalized area under the dose-response curve [19] | normalized area under the dose-response curve [20] | normalized area under the dose-response curve (LP1 (cancer type: MM)) | normalized area under the dose-response curve [21] | normalized area under the dose-response curve [22] | normalized area under the dose-response curve (FR4 (cancer type: MM)) | normalized area under the dose-response curve (OPM2 (cancer type: MM)) | normalized area under the dose-response curve (KMS34 (cancer type: MM))
O=C(/C=C/c1cccc(S(=O)(=O)Nc2ccccc2)c1)NO [Belinostat] | 0.218 | 0.473 | 0.262 | 0.44 | 0.531 | 0.301 | 0.247 | 0.394 | 0.473 | 0.445 | 0.21 | 0.564 | 0.0712 | 0.506 | 0.712 | 0.582 | 0.385 | 0.53 | 0.229 | 0.553 | 0.215 | 0.25 | 0.178 | 0.366 | 0.4 | 0.416 | 0.201 | 0.4 | 0.38 | 0.1 | 0.36 | 0.384 | 0.343 | 0.249 | 0.628 | 0.223 | 0.215 | 0.428 | 0.674 | 0.274
Cn1c(CCCC(=O)O)nc2cc(N(CCCl)CCCl)ccc21 [Bendamustine hydrochloride] | 0.794 | 0.84 | 0.932 | 0.74 | 0.885 | 0.849 | 0.815 | 0.92 | 0.875 | 0.849 | 0.68 | 0.879 | 0.831 | 0.862 | 0.955 | 0.911 | 0.684 | 0.938 | 0.87 | 0.832 | 0.719 | 0.921 | 0.779 | 0.677 | 0.74 | 0.869 | 0.835 | 0.795 | 0.834 | 0.75 | 0.67 | 0.847 | 0.784 | 0.86 | 0.946 | 0.832 | 0.74 | 0.955 | 0.842 | 0.755
CC(C)C[C@H](NC(=O)[C@H](Cc1ccccc1)NC(=O)c1cnccn1)B(O)O [Bortezomib] | 0.1 | 0.0891 | 0.0146 | 0.08 | 0.0456 | 0.0751 | 0.0632 | 0.167 | 0.05 | 0.131 | 0.09 | 0.261 | 0.332 | 0.23 | 0.212 | 0.536 | 0.0575 | 0.343 | 0.009 | 0.0645 | 0.102 | 0.015 | 0.192 | 0.0685 | 0.26 | 0.0704 | 0.116 | 0.0391 | 0.111 | 0.09 | 0.06 | 0.0881 | 0.0249 | 0.0129 | 0.255 | 0.0798 | 0.285 | 0.7 | 0.197 | 0.196
COc1cc(Nc2c(C#N)cnc3cc(OCCCN4CCN(C)CC4)c(OC)cc23)c(Cl)cc1Cl [Bosutinib] | 0.667 | 0.525 | 0.933 | 0.79 | 0.771 | 0.45 | 0.663 | 0.874 | 0.501 | 0.5 | 0.83 | 0.651 | 0.701 | 0.795 | 0.697 | 0.924 | 0.534 | 0.571 | 0.889 | 0.798 | 0.736 | 0.914 | 0.714 | 0.863 | 0.58 | 0.629 | 0.39 | 0.836 | 0.898 | 0.8 | 0.77 | 0.54 | 0.792 | 0.653 | 0.451 | 0.856 | 0.872 | 0.598 | 0.606 | 0.447
COc1cc(N2CCC(N3CCN(C)CC3)CC2)ccc1Nc1ncc(Cl)c(Nc2ccccc2P(C)(C)=O)n1 [Brigatinib] | 0.123 | 0.538 | 0.835 | 0.83 | 0.84 | 0.525 | 0.55 | 0.5 | 0.745 | 0.466 | 0.46 | 0.351 | 0.504 | 0.76 | 0.789 | 0.891 | 0.855 | 0.527 | 0.815 | 0.469 | 0.748 | 0.785 | 0.524 | 0.611 | 0.79 | 0.539 | 0.574 | 0.936 | 0.803 | 0.39 | 0.51 | 0.191 | 0.921 | 0.863 | 0.598 | 0.989 | 0.556 | 0.723 | 0.179 | 0.308
Nc1cc(C(F)(F)F)c(-c2cc(N3CCOCC3)nc(N3CCOCC3)n2)cn1 [Buparlisib] | 0.375 | 0.414 | 0.605 | 0.71 | 0.493 | 0.424 | 0.654 | 0.443 | 0.303 | 0.477 | 0.3 | 0.358 | 0.513 | 0.627 | 0.573 | 0.685 | 0.497 | 0.55 | 0.365 | 0.445 | 0.431 | 0.561 | 0.348 | 0.498 | 0.55 | 0.562 | 0.509 | 0.689 | 0.564 | 0.3 | 0.28 | 0.38 | 0.571 | 0.516 | 0.493 | 0.562 | 0.473 | 0.454 | 0.392 | 0.165
Cc1noc2c1-c1ccccc1C(c1ccc(Cl)cc1)=N[C@H]2CC(N)=O [CPI0610] | 0.794 | 0.601 | 0.721 | 0.52 | 0.905 | 0.526 | 0.782 | 0.583 | 0.728 | 0.642 | 0.61 | 0.629 | 0.72 | 0.748 | 0.675 | 0.868 | 0.693 | 0.556 | 0.889 | 0.746 | 0.721 | 0.717 | 0.775 | 0.492 | 0.69 | 0.841 | 0.554 | 0.696 | 0.771 | 0.63 | 0.67 | 0.704 | 0.938 | 0.686 | 0.687 | 0.922 | 0.713 | 0.691 | 0.685 | 0.571
COc1cc2nccc(Oc3ccc(NC(=O)C4(C(=O)Nc5ccc(F)cc5)CC4)cc3)c2cc1OC [Cabozantinib] | 0.895 | 0.762 | 0.858 | 0.82 | 0.863 | 0.715 | 0.756 | 0.672 | 0.734 | 0.628 | 0.59 | 0.719 | 0.918 | 0.94 | 0.798 | 0.91 | 0.63 | 0.706 | 0.852 | 0.789 | 0.721 | 0.729 | 0.762 | 0.94 | 0.72 | 0.793 | 0.605 | 0.917 | 0.867 | 0.61 | 0.59 | 0.645 | 0.865 | 0.951 | 0.803 | 0.956 | 0.964 | 0.743 | 0.631 | 0.68

— the supplement of paper PMC7214452
